Reference: ChEMBL document CHEMBL5291721, “A preclinical secondary pharmacology resource illuminates target-adverse drug reaction associations of marketed drugs” (Nat Commun, 2023)

What was measured:
Progesterone receptor = molecular target: T1, Progesterone receptor (Homo sapiens, UniProt P06401)
T1 sequence (P06401 whole entry): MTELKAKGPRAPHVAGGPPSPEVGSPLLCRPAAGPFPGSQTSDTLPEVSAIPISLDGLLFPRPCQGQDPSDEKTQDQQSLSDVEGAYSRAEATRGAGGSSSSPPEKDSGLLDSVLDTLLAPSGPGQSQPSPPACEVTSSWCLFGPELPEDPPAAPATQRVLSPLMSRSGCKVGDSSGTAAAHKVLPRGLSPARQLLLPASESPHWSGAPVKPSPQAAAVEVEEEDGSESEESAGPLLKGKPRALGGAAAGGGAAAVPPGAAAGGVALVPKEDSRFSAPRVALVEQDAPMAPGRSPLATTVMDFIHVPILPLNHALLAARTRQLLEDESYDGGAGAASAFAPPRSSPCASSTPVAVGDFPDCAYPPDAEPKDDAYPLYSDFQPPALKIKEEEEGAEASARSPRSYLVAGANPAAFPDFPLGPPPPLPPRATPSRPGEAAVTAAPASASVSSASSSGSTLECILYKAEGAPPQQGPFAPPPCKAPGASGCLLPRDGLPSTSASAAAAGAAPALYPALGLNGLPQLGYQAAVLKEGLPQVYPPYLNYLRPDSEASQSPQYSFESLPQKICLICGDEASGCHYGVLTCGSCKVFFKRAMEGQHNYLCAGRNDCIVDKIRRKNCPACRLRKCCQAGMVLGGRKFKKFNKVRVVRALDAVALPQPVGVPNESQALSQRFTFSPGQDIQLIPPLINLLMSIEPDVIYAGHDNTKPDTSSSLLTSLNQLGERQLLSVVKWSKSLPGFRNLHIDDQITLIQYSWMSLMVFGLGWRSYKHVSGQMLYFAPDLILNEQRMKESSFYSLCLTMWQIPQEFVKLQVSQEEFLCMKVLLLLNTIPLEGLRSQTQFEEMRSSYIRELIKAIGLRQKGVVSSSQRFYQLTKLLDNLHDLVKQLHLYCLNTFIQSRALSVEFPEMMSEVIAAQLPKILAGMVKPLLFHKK

[1] = molecular target: T2, Alpha-2A adrenergic receptor (Homo sapiens, UniProt P08913)
T2 sequence (P08913 whole entry): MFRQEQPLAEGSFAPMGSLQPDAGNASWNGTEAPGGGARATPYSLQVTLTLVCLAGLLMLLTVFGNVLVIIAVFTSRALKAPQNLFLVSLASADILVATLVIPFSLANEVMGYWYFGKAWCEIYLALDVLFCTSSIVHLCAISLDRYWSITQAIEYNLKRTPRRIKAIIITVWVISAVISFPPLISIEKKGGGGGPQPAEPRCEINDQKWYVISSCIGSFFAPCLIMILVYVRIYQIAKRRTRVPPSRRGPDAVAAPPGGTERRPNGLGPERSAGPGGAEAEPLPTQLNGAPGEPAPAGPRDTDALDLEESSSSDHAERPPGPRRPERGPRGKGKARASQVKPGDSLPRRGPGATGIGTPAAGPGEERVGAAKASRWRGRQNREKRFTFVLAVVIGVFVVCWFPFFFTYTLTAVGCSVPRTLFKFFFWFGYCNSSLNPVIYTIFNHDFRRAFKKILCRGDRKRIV
Further: assay procedure not described here.

| Structure (SMILES) | AC50 (Progesterone receptor) | AC50 [1] |
| --- | --- | --- |
| CN1CCC[C@@H]1Cc1c[nH]c2ccc(CCS(=O)(=O)c3ccccc3)cc12 | > 30 µM | 7.51 µM |
| COc1nccnc1NS(=O)(=O)c1ccc(N)cc1 | – | > 30 µM |
| O=C(Nc1cccc2c(=O)cc(-c3nnn[nH]3)oc12)c1ccc(OCCCCc2ccccc2)cc1 | 6.23 µM | > 30 µM |
| NC(=O)c1nc(F)c[nH]c1=O | > 30 µM | > 30 µM |
| CN(C)CCCN1C(=O)c2cc([N+](=O)[O-])ccc2Oc2ccccc21 | > 30 µM | 28.4 µM |
| O=S(=O)(O)CCS [2-MERCAPTOETHANESULFONIC ACID] | > 30 µM | > 30 µM |
| O=C(O)COc1nn(Cc2ccccc2)c2ccccc12 [BENDAZAC] | > 30 µM | > 30 µM |
| Cc1ccc([C@@H]2O[C@H](CO)[C@@H](O)[C@H](O)[C@H]2O)cc1Cc1ccc(-c2ccc(F)cc2)s1 [CANAGLIFLOZIN ANHYDROUS] | > 30 µM | > 30 µM |
| O=C(O)CCCc1ccc(N(CCCl)CCCl)cc1 [CHLORAMBUCIL] | > 30 µM | > 30 µM |
| CN(C)CCN(Cc1ccc(Cl)cc1)c1ccccn1 [CHLOROPYRAMINE] | > 30 µM | 12.2 µM |
| O=C(O)c1cc(=O)c2ccccc2o1 [CHROMOCARB] | > 30 µM | > 30 µM |
| CN(CC(=O)O)C(=N)N [CREATINE] | > 30 µM | > 30 µM |
| N[C@@H](CSSC[C@H](N)C(=O)O)C(=O)O [CYSTINE] | > 30 µM | > 30 µM |
| Cn1c(=O)c2c(ncn2CC(O)CO)n(C)c1=O (stereo not drawn) [DYPHYLLINE] | > 30 µM | > 30 µM |
| C[C@]12CC[C@@H]3c4ccc(O)cc4CC[C@H]3[C@@H]1CC[C@@H]2OC(=O)CCC1CCCC1 [ESTRADIOL CYPIONATE] | 1.65 µM | > 30 µM |
| CC1(C)O[C@@H]2C[C@H]3[C@@H]4CCC5=CC(=O)CC[C@]5(C)[C@@]4(F)[C@@H](O)C[C@]3(C)[C@]2(C(=O)CCl)O1 [HALCINONIDE] | 0.003 µM | > 30 µM |
| C[C@]12CCC(=O)C=C1CC[C@@H]1[C@@H]2[C@@H](O)C[C@@]2(C)[C@H]1CC[C@]2(O)C(=O)COC(=O)CCC(=O)O [HYDROCORTISONE HEMISUCCINATE ANHYDROUS] | > 30 µM | > 30 µM |
